# Assays:
# [1] = molecular target: T1, Serine/threonine-protein kinase ULK1 (Homo sapiens) (UniProt O75385); experiment: Inhibition of ULK1 (unknown origin) relative to control; settings: concentration not given here
# T1 sequence (whole entry): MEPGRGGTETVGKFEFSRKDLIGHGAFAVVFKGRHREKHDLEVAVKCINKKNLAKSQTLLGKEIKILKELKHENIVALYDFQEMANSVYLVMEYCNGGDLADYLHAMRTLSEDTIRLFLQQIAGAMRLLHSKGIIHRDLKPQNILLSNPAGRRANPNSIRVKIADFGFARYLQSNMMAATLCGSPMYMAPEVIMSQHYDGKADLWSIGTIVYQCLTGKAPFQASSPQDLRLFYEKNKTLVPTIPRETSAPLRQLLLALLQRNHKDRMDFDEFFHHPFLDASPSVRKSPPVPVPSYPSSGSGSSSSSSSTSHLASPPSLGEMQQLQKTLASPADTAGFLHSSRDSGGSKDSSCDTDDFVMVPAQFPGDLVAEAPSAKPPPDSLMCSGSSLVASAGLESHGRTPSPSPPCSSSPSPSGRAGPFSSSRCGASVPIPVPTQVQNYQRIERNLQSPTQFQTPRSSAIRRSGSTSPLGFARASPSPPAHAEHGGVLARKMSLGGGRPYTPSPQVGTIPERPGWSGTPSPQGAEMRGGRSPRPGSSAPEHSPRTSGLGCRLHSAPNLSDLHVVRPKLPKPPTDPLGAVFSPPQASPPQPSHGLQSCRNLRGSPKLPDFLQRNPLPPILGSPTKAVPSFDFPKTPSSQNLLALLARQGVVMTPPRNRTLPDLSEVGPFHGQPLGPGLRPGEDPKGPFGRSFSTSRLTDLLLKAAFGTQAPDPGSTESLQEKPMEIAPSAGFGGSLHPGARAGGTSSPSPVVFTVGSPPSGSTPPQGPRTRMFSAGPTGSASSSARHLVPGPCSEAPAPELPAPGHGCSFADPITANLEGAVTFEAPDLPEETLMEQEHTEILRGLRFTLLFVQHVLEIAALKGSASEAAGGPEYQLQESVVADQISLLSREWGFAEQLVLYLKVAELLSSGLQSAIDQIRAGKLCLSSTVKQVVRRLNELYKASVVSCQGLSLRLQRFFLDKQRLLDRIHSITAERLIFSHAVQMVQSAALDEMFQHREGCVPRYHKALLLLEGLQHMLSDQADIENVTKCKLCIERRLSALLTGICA
# [2] = tested on: Non-small cell lung cancer cell line; experiment: Antiproliferative activity against Non-small cell lung cancer cells (unknown origin); type: functional, cell-based
SMILES,inhibition [1],IC50 [2]
O=c1c(O)c(-c2ccc(O)c(O)c2)oc2cc(O)ccc12,75%,
C=CC(=O)Nc1cc(Nc2nccc(-c3cn(C)c4ccccc34)n2)c(OC)cc1N(C)CCN(C)C [OSIMERTINIB],,41 nM
